How the values were obtained:
[1] = tested on: B/Victoria-lineage neuraminidase (NA); format: biochemical, influenza B/Victoria-lineage virus
[2] = tested on: B/Yamagata-lineage neuraminidase (NA); format: biochemical, influenza B/Yamagata-lineage virus

CC(=O)N[C@H]1[C@H]([C@H](O)[C@H](O)CO)OC(C(=O)O)=C[C@@H]1N=C(N)N [Zanamivir, zanamivir]
inhibition class (NI, RI, HRI) [1]: NI (key: NI: B viruses <5-fold; RI: B viruses 5- to 50-fold; HRI: B viruses >50-fold)

[H]/N=C(\N)N[C@H]1C=C(C(=O)O)O[C@@H]([C@H](OC)[C@H](O)CO)[C@@H]1NC(C)=O [Laninamivir, laninamivir]
inhibition class (NI, RI, HRI) [2]: NI (key: NI: B viruses <5-fold; RI: B viruses 5- to 50-fold; HRI: B viruses >50-fold) | inhibition class (NI, RI, HRI) [1]: NI (key: NI: B viruses <5-fold; RI: B viruses 5- to 50-fold; HRI: B viruses >50-fold)
